Reference: PubChem BioAssay (NCI)
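In this assay, cells in 96-well plates receive the compound at five concentrations for 48 hours. Endpoints are linearly interpolated between the surrounding concentrations. GI50 is the concentration that inhibits growth by half. TGI is the concentration that stops growth completely.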

Columns and labels:
Test in all cases: growth of human tumour cells (NCI), 48 h
COLO 205 colon = tested on: COLO 205 colon
SF-268 CNS = tested on: SF-268 CNS
T-47D breast = tested on: T-47D breast
UO-31 renal = tested on: UO-31 renal
RPMI-8226 leukemia = tested on: RPMI-8226 leukemia
HS 578T breast = tested on: HS 578T breast
OVCAR-3 ovarian = tested on: OVCAR-3 ovarian
BT-549 breast = tested on: BT-549 breast
CAKI-1 renal = tested on: CAKI-1 renal
HCT-116 colon = tested on: HCT-116 colon

SMILES | GI50 (COLO 205 colon) [µM] | TGI (COLO 205 colon) [µM] | GI50 (SF-268 CNS) [µM] | TGI (SF-268 CNS) [µM] | GI50 (T-47D breast) [µM] | TGI (T-47D breast) [µM] | GI50 (UO-31 renal) [µM] | TGI (UO-31 renal) [µM] | GI50 (RPMI-8226 leukemia) [µM] | TGI (RPMI-8226 leukemia) [µM] | GI50 (HS 578T breast) [µM] | TGI (HS 578T breast) [µM] | GI50 (OVCAR-3 ovarian) [µM] | TGI (OVCAR-3 ovarian) [µM] | GI50 (BT-549 breast) [µM] | TGI (BT-549 breast) [µM] | GI50 (CAKI-1 renal) [µM] | TGI (CAKI-1 renal) [µM] | GI50 (HCT-116 colon) [µM] | TGI (HCT-116 colon) [µM]
CCCNC(=S)N/N=C(\C)c1ccccn1 | 0.04 | > 100 | 0.226 | > 51.1 | 0.0274 | > 100 | 0.293 | > 82.8 | 0.0268 | > 100 | 1.42 | > 100 | < 0.01 | > 100 | 1.44 | > 100 | 0.22 | > 80.7 | < 0.01 | > 100
COc1ccc(OC)c(/C=C/NC=O)c1 |  | > 100 |  | > 100 |  |  |  | > 100 |  | > 100 |  |  |  | > 100 |  |  |  | > 100 |  | > 100
CNC=O.[O]=[Ge].[O]=[Ge].[O]=[Ge].[O]=[Ge][OH].[O]=[Ge][OH] |  |  |  | > 100 |  |  |  | > 100 |  | > 100 |  |  |  | > 100 |  |  |  | > 100 |  | > 100
CSc1ccc(/C=C2/C[N+](C)(C)C/C(=C/c3ccc(SC)cc3)C2=O)cc1 |  | 17.8 |  | 22.7 |  |  |  | > 100 |  | 9.92 |  |  |  | 38.3 |  |  |  |  |  | 
COC(=O)C1=C(c2ccc3c(c2)OCO3)O[C@H](c2ccc3c(c2)OCO3)[C@H]1COC(C)=O |  | 28.9 |  | > 100 |  |  |  | > 100 |  | > 100 |  |  |  | > 100 |  |  |  | > 100 |  | > 100
CN(C)C(=S)/N=c1\ss/c(=N\C(=S)N(C)C)n1-c1ccc2c(c1)OCO2 |  |  |  | > 100 |  |  |  | > 100 |  |  |  |  |  | > 100 |  |  |  | > 100 |  | > 100
Cc1cccc(N2C(=O)C(Cl)=C(Cl)C2=O)c1 |  | > 100 |  | > 100 |  |  |  | > 100 |  | > 78.9 |  |  |  | > 80.5 |  |  |  | > 56.9 |  | > 100
O=C(/C=C/c1ccccc1Cl)c1ccccc1Cl |  | 44.8 |  | 50.5 |  |  |  | 34.3 |  | 44.7 |  |  |  | 33.9 |  |  |  | 38.1 |  | 28.5
COc1cccc(NCc2nnc(Nc3ccc(Cl)cc3)c3ccccc23)c1 | 0.492 | 4.01 | 2.05 | 10.5 | 0.649 | 6.56 | 0.608 | 5.28 | 1.48 | 7.51 | 2.9 | 11.5 | 1.65 | 10 | 1.9 | 7.42 |  |  | 0.881 | 4.2
CSc1nc(NC2OC(COC(C)=O)C(OC(C)=O)C(OC(C)=O)C2OC(C)=O)c2c(OC(C)=O)c(C)c(=O)oc2n1 (configuration not stated) |  | > 100 |  |  |  |  |  | > 100 |  | > 100 |  |  |  | > 100 |  |  |  | > 100 |  | > 100
CC[C@H](C)[C@H](NC(=O)[C@H]1CCCCN1C)C(=O)N(C)[C@H](CCc1nc(C(=O)N[C@@H](Cc2ccccc2)C[C@H](C)C(=O)OC)cs1)C(C)C | 0.167 | 0.916 | 1.03 | > 25 |  |  | 1.78 | 13.7 | 0.0929 | 8.17 | 0.322 | 5.29 | 0.0867 |  | 0.177 | 2.48 |  |  | 0.118 | > 5.35
CCc1cccc(C)c1NC(C)=O |  |  |  |  |  |  |  | > 100 |  | > 100 |  |  |  | > 100 |  |  |  | > 100 |  | > 100
Cc1cccc(C(C)(C)C)c1NC(=O)CCc1n[nH]c(=S)o1 |  | 47.6 |  | > 100 |  |  |  | > 100 |  | 51.6 |  |  |  | > 100 |  |  |  | > 100 |  | 33.9
O=S(O)CCCCSSCCCCSSCCCCS(=O)O |  | 83.6 |  | > 100 |  |  |  | > 100 |  |  |  |  |  | > 100 |  |  |  | > 100 |  | > 100
COc1cc(Cn2c(-c3ccccc3)cc3c2-c2oncc2CC3)cc(OC)c1OC | 0.696 | 3.13 | 5.77 | > 100 | 1.07 | 81.2 | 3.23 | > 100 | 5.43 | > 100 | 0.51 | > 100 | 0.372 | 1.65 |  |  | 0.566 | > 100 | 0.464 | 91.7
O=C(NC1CCCCCC1)C1C(=O)N(C2CCCCCC2)C(=O)/C1=N\O (configuration not stated) |  | 31.2 |  | > 100 |  |  |  | 97.5 |  | 83.3 |  |  |  | 37.6 |  |  |  | > 100 |  | 31.8
NC(N)=NC(N)=Nc1cc2ccccc2c2ccccc12 | 1.84 | 4.49 | 9.61 | 24.1 | 11 | 29.3 | 5.05 | 19.9 | 4.49 | 26 | 11.5 | 33.8 | 12.3 | 26.6 | 10.5 | 22.8 |  |  | 5.33 | 18.3
C#CC[C@]12CC(=O)CC[C@H]1CC(=O)C2 |  | > 100 |  | > 100 |  |  |  | > 100 |  | > 100 |  |  |  | > 100 |  |  |  | > 100 |  | > 100
COc1ccc(C2CC(=O)c3c(O)c(OC)c(OC)c(OC)c3O2)c(O)c1 (configuration not stated) | 4.43 | 18 | 0.534 | 38.3 | 0.113 | 24.6 | 1.09 | 21.4 | 0.372 | 18.4 | 0.201 | 48.7 |  |  | 0.221 | 20.5 | 0.781 | 60.4 | 0.053 | 60.9
COc1cc2c3c(n(CCCCl)c(=O)c2cc1OC)-c1ccccc1C3=O |  |  | > 100 | > 100 | > 100 | > 100 | > 100 | > 100 | 25.4 | > 100 | 23.5 | > 100 | 10.6 | 54.8 | > 100 | > 100 | 1.44 | 7.6 | 2.46 | > 100
